Results as given in US6951652B2, “Vaccine for prevention of gram-negative bacterial infections and endotoxin related diseases” (BioSynth S.r.l., priority 1998, dated 2005).
Ends that are not written are not given here.

Assay: In vitro saturation of lipid A binding site by peptide
Conditions: stoichiometric saturation

With “Lys-Thr-Lys-Cys-Lys-Phe-Leu-Lys-Lys-Cys (KTKCKFLKKC; also: cyclic, ring type not given here) [SAEP2]” as the substance, how does the “affinity of binding to lipid A binding site” value read?
The value was “high affinity”.
